# Read-outs that look alike come from different tables or passages of the source.
# What was measured:
# [1] = tested on: isolation-induced fighting in mice; assay: Isolated fighting mouse (IFM) test / isolated mouse aggression; type: in vivo; conditions: for responders at 30 mg/kg / ED50: Mus musculus, ip; for responders at 30 mg/kg: 30 mg/kg intraperitoneally, at least 40% protected = active
# Procedure: *IFM - Isolated fighting mouse test at a dose of 30 mg/kg
# intraperitoneally; those compounds which protected at least 40% of the
# (§1) Two models of aggression are used in the primary screening for neuroleptics, (1) isolation-induced fighting in mice (IFM), and (2) aggression induced in rats by destruction of the septal area (septal rat). Compounds are first submitted, however, to the neuropharmacological profile, a standard procedure (see, e.g., Samuel Irwin, Science, 136, 123 [1962]) employed in screening a compound to determine its usefulness as a central nervous system active compound. Those agents which cause depression over a wide dose range are then submitted to the first anti-aggression screen, the isolation-induced fighting mouse assay.
# (§2) The compound of Example 6 was compared with chlorpromazine and chlordiazepoxide for its anti-aggressive activity. Three models of experimentally-induced aggression in rodents were studied (R. D. Sofia, Life Science, 8: 705, 1969).
# [2] = tested on: spontaneous locomotor activity in rats; assay: Spontaneous locomotor activity; type: in vivo; conditions: Rattus norvegicus, ip, 0.5 h, read-out: SD50 (dose causing 50% reduction from control activity)
# [3] = Neurotoxicity (rotating rod / rotorod), mice; conditions: mouse, in vivo, ip; I.P., mice; 95% confidence limits; read-out: NTD50
# Procedure: (§3) In the neurotoxicity test, the value (NTD50) is defined as the dose necessary to cause 50% of mice or rats trained to walk a rotating wooden rod (5 rpm) to fall at the time of peak effect, and is a measure of drug effects on motor function or central nervous system toxicity. The results set forth in Table III were obtained when the compound of Example 6 was tested against chlorpromazine and chlordiazepoxide.
# [4] = Neurotoxicity (rotating rod / rotorod), rats; conditions: rat, in vivo, ip; I.P., rats; 95% confidence limits; read-out: NTD50
# Procedure: as §3
# [5] = tested on: electroshock-induced fighting in mice; assay: Electroshock-induced fighting in mice; type: in vivo, mouse; conditions: for ED50: Mus musculus, ip, read-out: ED50 (95% Confidence Limits), Electroshock-Induced Fighting in Mice; for NTD50/ED50, Electroshock-Induced Fighting in Mice: i.p. administration
# Description: as §2
# [6] = tested on: aggression induced in rats by destruction of the septal area; assay: Septal rat aggression; type: in vivo; conditions: for ED50: Rattus norvegicus, ip, read-out: ED50 (95% Confidence Limits), Septal Rat Aggression
# Description: as §1, §2
# [7] = tested on: maximal electroshock seizures in mice; assay: Maximal electroshock seizures; type: in vivo, mouse
# Procedure: Groups of ten mice each were injected i.p. with a vehicle and the compound of Example 6 and placed in individual Plexiglas squares. Thirty minutes after i.p. injection, each mouse was administered an electric shock transcorneally at 50mA intensity, 0.2 seconds duration (Swinyard, et al, J. Pharmacol. Exptl. Ther., 106: 319, 1952). The criterion for activity is protection against tonic extension of the hind limbs. The dose necessary to protect 50% of the mice (MES50) was determined.
# [8] = tested on: pentylenetetrazol seizures in mice; assay: Pentylenetetrazol seizures; type: in vivo, mouse; conditions: for ED50: Mus musculus, ip, 1 h
# Procedure: In this test (modification of the method introduced by Everett and Richard, J. Pharmacol. Exptl. Ther., 81: 402, 1944), groups of ten mice each are pretreated i.p. with vehicle and various doses of the compound of Example 6 and placed in Plexiglas squares. Thirty minutes later, all mice are injected subcutaneously (s.c.) with pentylenetetrazol at 125 mg/kg and observed immediately thereafter for convulsions and death for a period of 1 hour.
# [9] = tested on: d-amphetamine aggregation-induced lethality; assay: d-Amphetamine aggregation; type: in vivo; conditions: inactive at: Example 6 200 mg/kg, chlordiazepoxide 50 mg/kg
# Procedure: Protection from d-amphetamine aggregation-induced lethality is usually afforded by alpha-adrenergic-blocking agents such as chlorpromazine, phenoxybenzamine, etc. Percent protection was determined and an ED50 value was calculated.
# [10] = tested on: dihydroxyphenylalanine-induced fighting behavior in mice; assay: Dihydroxyphenylalanine (DOPA) fighting test; type: in vivo, mouse; conditions: 200 mg/kg d1-DOPA; pargyline 80 mg/kg, Example 6 100 mg/kg, chlorpromazine 5 mg/kg, chlordiazepoxide 15 mg/kg
# Procedure: It is well known that when monoamine oxidase inhibitors are administered prior to the administration of d1-DOPA, which is a noradrenaline precursor, convulsions or excitation occur. In this study, the MAO inhibitor pargyline (80 mg/kg) was given 1, 2 and 4 hours prior to administering 200 mg/kg of d1-DOPA. […] Thus, in this procedure, none of the agents tested appears to be a MAO inhibitor.
# 5 day lethality, mice = conditions: mouse, in vivo, Mice, 5 day, 10 per cage, read-out: LD50 (95% Confidence Limits)
# Description: (§4) Table VIII gives the results of 5 day lethality studies following single injections of drug. All values presented represent tests conducted when animals were housed 10 per cage. The compound of Example 6 was compared with chlorpromazine and chlordiazepoxide. In these and all the preceding calculations, the method of Litchfield and Wilcoxon (J. Pharmacol. Exptl. Ther., 96: 99, 1949) was used to estimate effective (ED50) or lethal (LD50) dose.
# 5 day lethality, rats = conditions: rat, in vivo, ip; Rats, I.P., 5 day, 10 per cage; read-out: LD50 (95% Confidence Limits)
# Description: as §4
# [11] = tested on: hissing response elicited by hypothalamic stimulation in cats; conditions: Baxter, Life Sciences, 3: 531, 1964, cited from earlier work
# [12] = tested on: isolation-induced fighting in mice; assay: Isolated fighting mouse (IFM) test / isolated mouse aggression; type: in vivo; conditions: po, 30 mg/kg, per os, read-out: IFM % protected
# [13] = i.p. administration, read-out: ED50 (IFM)
compound,measurement,setting,value
NC(=O)c1ccccc1N=NNc1cccnc1Cl [Example 21],responders at 30 mg/kg,[1],40%
"Cc1ccc(NN=Nc2ccccc2C(N)=O)cc1 [Example 8, 2-[3-p-tolyl-1(or 2)-triazeno]-benzamide]",responders at 30 mg/kg,[1],100%
"CN(C)CCCN1c2ccccc2Sc2ccc(Cl)cc21 [Chlorpromazine, chlorpromazine]",ED50,"[1]; i.p. administration, read-out: ED50 (95% Confidence Limits), Isolated Mouse Aggression",2.8 mg/kg
same,"NTD50/ED50, Isolated Mouse Aggression",[1]; i.p. administration,0.3
same,ED50,[2],1.7 mg/kg
same,TD50,[3],0.7 mg/kg
same,TD50,[4],5.3 mg/kg
same,ED50,[5],5.5 mg/kg
same,"NTD50/ED50, Electroshock-Induced Fighting in Mice",[5],0.1
same,ED50,[6]; i.p. administration,10.7 mg/kg
same,"NTD50/ED50, Septal Rat Aggression",[6]; i.p. administration,0.5
same,MES50,"[7]; I.P., mice, inactive at: Example 6 200 mg/kg, chlorpromazine 25 mg/kg",Inactive
same,MET50,"[8]; I.P., mice, inactive at: Example 6 200 mg/kg, chlorpromazine 100 mg/kg",Inactive
same,ED50,[9],1.2 mg/kg
same,"excitation, salivation, jumping, and fighting with d1-DOPA",[10],these symptoms were not observed
same,LD50 at 120 h,"5 day lethality, mice; ip, I.P.",136 mg/kg
same,LD50 at 120 h,"5 day lethality, mice; po, P.O.",280 mg/kg
same,LD50 at 120 h,"5 day lethality, rats",138 mg/kg
"CNC1=Nc2ccc(Cl)cc2C(c2ccccc2)=[N+]([O-])C1 [Chlordiazepoxide, chlordiazepoxide]",ED50,"[1]; read-out: ED50 (95% Confidence Limits), Isolated Mouse Aggression",20.5 mg/kg
same,"NTD50/ED50, Isolated Mouse Aggression",[1]; i.p. administration,0.7
same,TD50,[3],13.8 mg/kg
same,TD50,[4],4.3 mg/kg
same,ED50,[5],4.2 mg/kg
same,"NTD50/ED50, Electroshock-Induced Fighting in Mice",[5],3.3
same,ED50,[6],25.8 mg/kg
same,"NTD50/ED50, Septal Rat Aggression",[6]; i.p. administration,0.6
same,ED50,"[7]; Mus musculus, ip, 0.5 h, read-out: MES50",14.3 mg/kg
same,ED50,"[8]; read-out: MET50, convulsions",7.1 mg/kg
same,ED50,"[8]; read-out: MET50, death",2.6 mg/kg
same,"ED50, d-amphetamine aggregation",[9],Inactive
same,"excitation, salivation, jumping, and fighting with d1-DOPA",[10],these symptoms were not observed
same,LD50 at 120 h,"5 day lethality, mice; ip, I.P.",400 mg/kg
same,LD50 at 120 h,"5 day lethality, mice; po, P.O.",810 mg/kg
same,LD50 at 120 h,"5 day lethality, rats",265 mg/kg
same,effect on hypothalamic threshold / rage response,[11],increase the threshold of the hypothalamus to electrical stimulation
same,effect on hypothalamic threshold / rage response,[11]; listed as chlordiazepoxide,specific in inhibiting this response
CCOc1ccc(NN=Nc2ccccc2C(N)=O)cc1 [Example 38],responders at 30 mg/kg,[1],40%
Cc1ccccc1NN=Nc1ccccc1C(N)=O [Example 13],responders at 30 mg/kg,[1],100%
NC(=O)c1ccccc1N=NNc1ccc2ncccc2c1 [Example 20],responders at 30 mg/kg,[1],40%
CCCCNC(=O)c1ccccc1N=NNc1ccc(C)c(Cl)c1 [Example 28],responders at 30 mg/kg,[1],60%
Cc1nc(NN=Nc2ccccc2C(=O)N(C)C)sc1C(=O)NCc1ccccc1 [Example 31],responders at 30 mg/kg,[1],60%
COc1ccc(NN=Nc2ccccc2C(N)=O)cn1 [Example 22],responders at 30 mg/kg,[1],100%
Cc1nc(NN=Nc2ccccc2C(N)=O)sc1C(=O)Nc1ccccc1Cl [Example 17],responders at 30 mg/kg,[1],60%
"CCn1c2ccccc2c2cc(NN=Nc3ccccc3C(N)=O)ccc21 [Example 4, 2-[3-(9-ethyl-3-carbazolyl)-2(or 1)-triazeno]-benzamide]",responders at 30 mg/kg,[1],100%
Cc1nc(NN=Nc2ccccc2C(N)=O)sc1C(=O)Nc1ccccc1 [Example 18],responders at 30 mg/kg,[1],60%
C#CCN(C)Cc1ccccc1 [pargyline],"excitation, salivation, jumping, and fighting with d1-DOPA",[10],"excitation, salivation, jumping, and fighting"
COC(=O)c1ccccc1NN=Nc1ccccc1C(N)=O [Example 10],responders at 30 mg/kg,[1],80%
same,ED50,[1]; [13],6 mg/kg
CNC(=O)c1ccccc1N=NNc1nc(C)c(C(=O)NCc2ccccc2)s1 [Example 29],responders at 30 mg/kg,[1],100%
NC(=O)c1ccccc1N=NNc1cccnc1 [Example 19],responders at 30 mg/kg,[1],80%
NC(=O)c1ccccc1N=NNc1ccc(Cl)cc1 [Example 11],responders at 30 mg/kg,[1],40%
Cc1cc(C)c(NC(=O)c2sc(NN=Nc3ccccc3C(N)=O)nc2C)c(C)c1 [Example 9],responders at 30 mg/kg,[1],60%
COc1ccccc1NN=Nc1ccccc1C(N)=O [Example 25],responders at 30 mg/kg,[1],60%
CNC(=O)c1ccccc1N=NNc1ccc(C)c(Cl)c1 [Example 27],responders at 30 mg/kg,[1],80%
CCNC(=O)c1ccccc1N=NNc1nc(C)c(C(=O)NCc2ccccc2)s1 [Example 30],responders at 30 mg/kg,[12],60%
"NC(=O)c1ccccc1N=NNc1nccs1 [Example 2, 2-[3-(2-thiazolyl)-2(or 1)-triazeno]-benzamide]",responders at 30 mg/kg,[1],80%
same,ED50,[1]; [13],9.4 mg/kg
CNC(=O)c1ccccc1N=NNc1ccc(C)cc1 [Example 26],responders at 30 mg/kg,[1],100%
Cc1cccc(NN=Nc2ccccc2C(N)=O)c1 [Example 14],responders at 30 mg/kg,[1],80%
Cc1c(Cl)cccc1NN=Nc1ccccc1C(N)=O [Example 39],responders at 30 mg/kg,[1],40%
Cc1ccc(NN=Nc2ccccc2C(=O)Nc2ccccc2)cc1 [Example 32],responders at 30 mg/kg,[1],60%
Cc1ccc(NN=Nc2ccccc2C(N)=O)cc1C [Example 16],responders at 30 mg/kg,[1],60%
NC(=O)c1ccccc1N=NNc1ccc([N+](=O)[O-])cc1 [Example 12],responders at 30 mg/kg,[1],100%
NC(=O)c1ccccc1N=NNc1cccc([N+](=O)[O-])c1 [Example 15],responders at 30 mg/kg,[1],100%
COc1ccc(Cl)cc1NN=Nc1ccccc1C(N)=O [Example 37],responders at 30 mg/kg,[1],60%
NC(=O)c1ccccc1N=NNc1cccc(Cl)c1 [Example 36],responders at 30 mg/kg,[1],40%
"NC(=O)c1ccccc1N=NNc1ccccc1C(N)=O [Example 1, 2,2'-diazoaminobenzamide]",responders at 30 mg/kg,[1],100%
COc1cc([N+](=O)[O-])c(C)cc1NN=Nc1ccccc1C(N)=O [Example 34],responders at 30 mg/kg,[1],100%
same,ED50,[1]; [13],14.5 mg/kg
COc1ccc(NN=Nc2ccccc2C(N)=O)cc1 [Example 24],responders at 30 mg/kg,[1],100%
COc1ccc([N+](=O)[O-])cc1NN=Nc1ccccc1C(N)=O [Example 33],responders at 30 mg/kg,[1],100%
same,ED50,[1]; [13],14 mg/kg
NC(=O)c1ccccc1N=NNc1cccc2c1C(=O)c1ccccc1C2=O [Example 23],responders at 30 mg/kg,[1],40%
"Cc1nc(NN=Nc2ccccc2C(N)=O)sc1C(=O)N1CCOCC1 [Example 5, 2-[3-(4-methyl-5-morpholinocarbonyl-2-thiazolyl)-2(or 1)-triazeno]-benzamide]",responders at 30 mg/kg,[1],100%
same,ED50,[1]; [13],6.7 mg/kg
NC(=O)c1ccccc1N=NNc1ccccc1Cl [Example 35],responders at 30 mg/kg,[1],80%
same,ED50,[1]; [13],5.2 mg/kg
